Laboratory results published in PMC10518255, “A first-in-class pan-lysyl oxidase inhibitor impairs stromal remodeling and enhances gemcitabine response and survival in pancreatic cancer” (Nature Cancer, 2023).
Where “and” joins values, the source holds several entries; their conditions need not be identical. Equal entries are not always repeated.

What was measured:
LOXL2 = target: T1, LOXL2 (Homo sapiens, UniProt Q9Y4K0); test: Lysyl oxidase enzymatic activity, fluorescence-based assay, IC50; type: biochemical
T1 sequence (Q9Y4K0 26-774): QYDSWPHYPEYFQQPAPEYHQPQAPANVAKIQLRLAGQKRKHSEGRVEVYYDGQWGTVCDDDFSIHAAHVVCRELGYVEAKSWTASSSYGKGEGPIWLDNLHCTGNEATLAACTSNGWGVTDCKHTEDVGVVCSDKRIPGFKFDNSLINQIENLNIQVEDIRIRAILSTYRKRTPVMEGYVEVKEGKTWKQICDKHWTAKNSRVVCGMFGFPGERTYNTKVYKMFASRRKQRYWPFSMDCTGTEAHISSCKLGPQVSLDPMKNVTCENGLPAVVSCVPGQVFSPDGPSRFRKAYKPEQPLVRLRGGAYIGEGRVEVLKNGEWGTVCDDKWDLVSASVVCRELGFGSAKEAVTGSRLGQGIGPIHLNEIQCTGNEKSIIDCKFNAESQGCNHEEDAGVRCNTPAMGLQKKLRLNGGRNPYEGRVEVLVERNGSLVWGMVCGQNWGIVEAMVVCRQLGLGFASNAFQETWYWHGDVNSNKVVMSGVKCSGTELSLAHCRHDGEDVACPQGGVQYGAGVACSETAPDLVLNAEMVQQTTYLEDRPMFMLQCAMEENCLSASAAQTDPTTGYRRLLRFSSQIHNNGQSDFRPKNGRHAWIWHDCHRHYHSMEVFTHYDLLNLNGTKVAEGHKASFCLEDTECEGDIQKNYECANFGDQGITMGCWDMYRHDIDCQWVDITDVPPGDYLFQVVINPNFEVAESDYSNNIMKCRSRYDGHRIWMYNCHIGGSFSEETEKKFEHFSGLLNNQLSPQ
Source text: (§1) Data are presented as mean ± s.d. […] Data presented as mean ± s.d. […] Source data TEXT PRINTED IN THE PICTURE: (b) PXS-5505: Recombinant DAO IC50 (nM): >30,000; Recombinant SSAO/VAP1 IC50 (nM): >30,000; Recombinant MAO-A IC50 (nM): >30,000; Recombinant MAO-B IC50 (nM): >30,000 | (f) PXS-5505: Fibroblast LOX IC50 (nM): 4,930; Recombinant LOXL-1 IC50 (nM): 1,590; Recombinant LOXL-2 IC50 (nM): 570; Recombinant LOXL-3 IC50 (nM): 1,800; Recombinant LOXL-4 IC50 (nM): 190
(§2) In characterizing PXS-5505, the half-maximum inhibitory concentration (IC50) values for each of the lysyl oxidase family members were determined by measuring enzymatic activity using a fluorescence-based assay.
(§3) Data presented as mean values +/− SD. f. […] Data presented as mean values +/− SD. […] Data presented as mean values +/− SD. […] Data presented as mean values +/− SD. Ordinary one-way ANOVA for multiple comparison test performed. Source data

Recombinant LOXL-3 = target: T2, Recombinant LOXL-3 (Homo sapiens, UniProt P58215); test: as above; type: biochemical; conditions: for LOXL3 activity, IC50 determination curve: replicates
T2 sequence (P58215 26-753): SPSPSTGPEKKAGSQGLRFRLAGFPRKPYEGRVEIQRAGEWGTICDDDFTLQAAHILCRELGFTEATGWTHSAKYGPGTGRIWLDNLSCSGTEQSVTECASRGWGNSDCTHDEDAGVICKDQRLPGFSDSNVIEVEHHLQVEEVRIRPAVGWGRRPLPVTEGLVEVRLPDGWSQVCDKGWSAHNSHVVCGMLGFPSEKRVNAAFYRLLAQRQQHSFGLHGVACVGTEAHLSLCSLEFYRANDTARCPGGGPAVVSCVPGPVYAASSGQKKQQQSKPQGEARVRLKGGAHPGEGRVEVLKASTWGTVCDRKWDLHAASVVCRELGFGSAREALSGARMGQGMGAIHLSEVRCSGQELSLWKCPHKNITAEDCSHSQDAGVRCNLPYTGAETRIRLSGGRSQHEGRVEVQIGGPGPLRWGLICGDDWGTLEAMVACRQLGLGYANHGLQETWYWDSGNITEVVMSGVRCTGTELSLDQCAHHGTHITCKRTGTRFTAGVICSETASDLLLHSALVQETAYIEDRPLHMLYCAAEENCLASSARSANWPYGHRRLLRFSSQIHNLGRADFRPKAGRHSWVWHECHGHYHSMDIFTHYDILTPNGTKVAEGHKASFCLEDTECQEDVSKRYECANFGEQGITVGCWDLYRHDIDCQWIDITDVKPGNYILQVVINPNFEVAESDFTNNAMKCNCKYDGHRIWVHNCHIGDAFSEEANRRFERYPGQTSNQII
Source text: as §1, §2, §3

SMILES: Cl.Cl.NC/C=C(\F)CS(=O)(=O)c1cccc2cccnc12.O [PXS-5505, (Z)-3-fluoro-4-(quinolin-8-ylsulfonyl)but-2-en-1-amine dihydrochloride monohydrate]
- IC50 (LOXL2): 570 nM
- LOXL2 activity, IC50 determination curve (LOXL2; log(Concentration) -4.52288, replicates, 30 µM): 0.9304 and 1.355 and 0.47 and 0.4711 and 0.6366 and 0.3339 and 2.414 and 1.859 and 1.553 and 2.478
- LOXL2 activity, IC50 determination curve (LOXL2; log(Concentration) -5, replicates, 10 µM): 0.791 and 0.552 and 3.171 and 2.146 and 2.6 and 2.324 and 4.194 and 15.0185 and 14.1707 and 8.37
- LOXL2 activity, IC50 determination curve (LOXL2; log(Concentration) -5.47712, replicates, 3.333 µM): 9.121 and 8.824 and 12.3933 and 6.2776 and 9.388 and 8.093 and 13.2114 and 39.9206 and 33.7785 and 20.6899
- LOXL2 activity, IC50 determination curve (LOXL2; log(Concentration) -5.95424, replicates, 1.111 µM): 20.2389 and 25.6139 and 36.0073 and 28.0488 and 26.7357 and 24.6346 and 38.4827 and 46.4776 and 45.1428 and 35.5222
- LOXL2 activity, IC50 determination curve (LOXL2; log(Concentration) -6.43136, replicates, 0.3704 µM): 49.7826 and 57.6495 and 70.9317 and 50.7979 and 55.1496 and 52.5589 and 67.2849 and 60.9084 and 60.7641 and 53.7886
- LOXL2 activity, IC50 determination curve (LOXL2; log(Concentration) -6.90849, replicates, 0.1235 µM): 78.7223 and 82.1964 and 89.3928 and 77.9843 and 81.0351 and 77.3849 and 88.1863 and 70.6401 and 64.9941 and 65.916
- LOXL2 activity, IC50 determination curve (LOXL2; log(Concentration) -7.38561, replicates, 0.04115 µM): 84.6124 and 93.105 and 97.9338
- LOXL2 activity, IC50 determination curve (LOXL2; log(Concentration) -7.86273, replicates, 0.01372 µM): 94.5455 and 97.658 and 97.7862 and 96.4122 and 96.1969 and 92.4844 and 101.479 and 86.0269 and 80.2817 and 84.4595
- LOXL2 activity, IC50 determination curve (LOXL2; log(Concentration) -8.33985, replicates, 0.004572 µM): 93.002 and 104.67 and 103.129 and 98.6809 and 97.1184 and 102.587 and 94.1262 and 87.5963 and 94.8578
- LOXL2 activity, IC50 determination curve (LOXL2; log(Concentration) -8.81697, replicates, 0.001524 µM): 103.323 and 104.142 and 98.8815 and 101.169 and 98.4227 and 104.725 and 98.8974 and 89.6166 and 94.7795
- LOXL2 activity, IC50 determination curve (LOXL2; log(Concentration) -9.29409, replicates, 0.000508 µM): 94.0836 and 101.708 and 97.4085 and 100.105 and 99.6157 and 105.819 and 98.717 and 92.3043 and 96.8459
- activity at 0.004572 µM (LOXL2; read-out: LOXL2 activity, IC50 determination curve, log(Concentration) -8.33985, replicates): 91.8%
- activity at 0.001524 µM (LOXL2; read-out: LOXL2 activity, IC50 determination curve, log(Concentration) -8.81697, replicates): 95.1%
- activity at 0.000508 µM (LOXL2; read-out: LOXL2 activity, IC50 determination curve, log(Concentration) -9.29409, replicates): 92%
- IC50 (Recombinant LOXL-3): 1800 nM
- LOXL3 activity, IC50 determination curve (Recombinant LOXL-3; log(Concentration) -4.52288, 30 µM): 0.995 and -0.1448 and -2.1827
- LOXL3 activity, IC50 determination curve (Recombinant LOXL-3; log(Concentration) -5, 10 µM): 5.702
- LOXL3 activity, IC50 determination curve (Recombinant LOXL-3; log(Concentration) -5.47712, 3.333 µM): 36.152 and 26.2163
- LOXL3 activity, IC50 determination curve (Recombinant LOXL-3; log(Concentration) -5.95424, 1.111 µM): 67.7528 and 54.7261
- LOXL3 activity, IC50 determination curve (Recombinant LOXL-3; log(Concentration) -6.43136, 0.3704 µM): 85.8582 and 75.7761
- LOXL3 activity, IC50 determination curve (Recombinant LOXL-3; log(Concentration) -6.90849, 0.1235 µM): 94.2403 and 83.1634
- LOXL3 activity, IC50 determination curve (Recombinant LOXL-3; log(Concentration) -7.38561, 0.04115 µM): 97.9203 and 84.9527
- LOXL3 activity, IC50 determination curve (Recombinant LOXL-3; log(Concentration) -7.86273, 0.01372 µM): 99.768 and 85.7835
